How the values were obtained:
[1] = tested on: protein N-glycosylation; conditions: pre-treatment of cells with β-antagonist; cited from earlier work
[2] = tested on: bovine adrenal medullary microvascular endothelial cells; assay: Cell cycle and apoptosis by flow cytometry (propidium iodide); assay type: cell-based
Experimental: Regarding flow cytometry, assessment of the cell cycle was determined by propidium iodide staining of fixed cell nuclei followed by flow cytometry in a FacSort (Beckton Dickinson) according to the method of Krishan (1975) as modified by Vindelov (1977), as discussed in KRISHAN, “Rapid Flow Cytofluorometric Analysis of Mammalian Cell Cycle by Propidium Iodide Staining”, J. Cell Biol., 66:188-193 (1975); and VINDELOV, “Flow Cytometric Analysis of Nuclear DNA in Cells from Solid Tumors and Cell Suspensions”, Virchows Arch (B), 24:227-231(1977), the disclosures of which are herein incorporated by reference in their entireties. Briefly, cells were trypsinized, and pelleted by centrifugation at 900 rpm in a bench top centrifuge (Sorvall T6000B). After washing twice with PBS the cell pellet was resuspended in propidium iodide-buffer (PI-buffer; 10 mM Tris-HCl, pH 8.0 containing 10 mM NaCl, 0.7 μM PI, 700 units/liter RNase, and 0.1% (v/v) NP-40), kept in ice for 30 minutes and then fixed with 2% (v/v) paraformaldehyde. After FacSort calibration, 3000 events were counted per sample. Acquisition and analysis of data were carried out by using Cell Quest flow cytometry software (Macintosh-based). Gates: M1=G0/G1, M2=S, M3=G2+M, M4=apoptosis.
Proliferation and Differentiation of Capillary Endothelial Cells: 2.0×10^4 cells were seeded per well in 24-well clusters in 1 ml complete EMEM containing 10% (v/v) serum and allowed to grow for 72 hours. Media were removed and the cells were washed twice with phosphate-buffer saline, pH 7.4 (PBS). Cells were synchronized by incubating for 48 hours in 2 mM hydroxyurea in serum-free EMEM with glutamine (2 mM) and one-third of penicillin-streptomycin used in a regular culture condition, followed by incubating 24 hours in serum-free EMEM, as discussed in CAO et al., “Modified Method of Mammalian Cell Synchronization Improves Yield and Degree of Synchronization”, Exp. Cell Res., 193:405-410 (1991), the disclosure of which is herein incorporated by reference in its entirety. Cells were routinely monitored by light microscopy. For proliferation assay, cells were trypsinized and counted in a hemacytometer. Viability of cells was determined by trypan blue (0.4% (v/v)) exclusion. Statistical analysis was carried out by StatView II software (Macintosh). Quantitation of cellular differentiation was carried out by observing under a Nikon AlphaShot inverted microscope, and counting the number of capillary lumen-like structures in five randomly selected fields per sample. The results were expressed as percent of its corresponding control after normalization of cell numbers. Analysis of Cell Cycle by Flow Cytometry: Assessment of the cell cycle was determined by propidium iodide staining of fixed cell nuclei followed by flow cytometry in a FacSort (Beckton Dickinson) according to the method of Krishan (1975) as modified by Vindelov (1977), as discussed in KRISHAN, “Rapid Flow Cytometric Analysis of Mammalian Cell Cycle by Propidium Iodide Staining”, J. Cell Biol. 66:188-195 (1975); and VINDELOV, “Flow Cytometric Analysis of Nuclear DNA in Cells from Solid Tumors and Cell Suspensions”, Virchows Arch (B), 24:227-231 (1977), the disclosures of which are herein incorporated by reference in their entireties. Briefly, cells were trypsinized, and pelleted by centrifugation at 900 rpm in a bench top centrifuge (Sorvall T6000B). After washing twice with PBS the cell pellet was resuspended in propidium iodide-buffer (PI-buffer; 10 mM Tris-HCl, pH 8.0 containing 10 mM NaCl, 0.7 μM PI, 700 units/liter RNase, and 0.1% (v/v) NP-40), kept in ice for 30 minutes and then fixed with 2% (v/v) paraformaldehyde. After FacSort calibration, 3000 events were counted per sample. Acquisition and analysis of data were carried out by using Cell Quest flow cytometry software (Macintosh-based). Gates: M1 G0/G1, M2=S, M3=G2+M, M4=apoptosis.

[3] = tested on: bovine adrenal medullary microvascular endothelial cells; assay: Capillary endothelial cell growth and proliferation (cell count in hemacytometer); assay type: cell-based
Experimental: Cells in the amount of 2.0×10^4 were seeded per well in 24-well clusters in 1 ml complete EMEM containing 10% (v/v) serum and allowed to grow for 72 hours. Media were removed and the cells were washed twice with phosphate-buffer saline, pH 7.4 (PBS). Cells were synchronized by incubating for 48 hours in 2 mM hydroxyurea in serum-free EMEM with glutamine (2 mM) and one-third of penicillin-streptomycin used in a regular culture condition, followed by incubating 24 hours in serum-free EMEM, as discussed in CAO et al., “Modified Method of Mammalian Cell Synchronization Improves Yield and Degree of Synchronization”, Exp. Cell Res., 193:405-410 (1991), the disclosure of which is herein incorporated by reference in its entirety.
For proliferation assay, cells were trypsinized and counted in a hemacytometer. Viability of cells was determined by trypan blue (0.4% (v/v)) exclusion. Statistical analysis was carried out by StatView II software (Macintosh). Quantitation of cellular differentiation was carried out by observing under a Nikon AlphaShot inverted microscope, and counting the number of capillary lumen-like structures in five randomly selected fields per sample.
Synchronized cells, as described in Example 1, were cultured at 37° C. in complete EMEM containing fetal bovine serum (1% (v/v), 2% (v/v), or 10% (v/v), or complete EMEM with 2% (v/v) fetal bovine serum containing 1 ng/ml −100 ng/ml of bFGF/FGF-2, or containing 0.5 μg/ml to 5.0 μg/ml tunicamycin (lot number 10922120-07 from Boehringer-Mannheim, Indianapolis, Ind.). In each case, the cellular growth and proliferation was monitored by trypan blue exclusion, by counting the cell number, and by their ability to process through the cell cycle by flow cytometry.
Proliferation and Differentiation of Capillary Endothelial Cells: 2.0×10^4 cells were seeded per well in 24-well clusters in 1 ml complete EMEM containing 10% (v/v) serum and allowed to grow for 72 hours. Media were removed and the cells were washed twice with phosphate-buffer saline, pH 7.4 (PBS). […] Cells were routinely monitored by light microscopy. For proliferation assay, cells were trypsinized and counted in a hemacytometer. Viability of cells was determined by trypan blue (0.4% (v/v)) exclusion. […] Quantitation of cellular differentiation was carried out by observing under a Nikon AlphaShot inverted microscope, and counting the number of capillary lumen-like structures in five randomly selected fields per sample. The results were expressed as percent of its corresponding control after normalization of cell numbers. Analysis of Cell Cycle by Flow Cytometry: Assessment of the cell cycle was determined by propidium iodide staining of fixed cell nuclei followed by flow cytometry in a FacSort (Beckton Dickinson) according to the method of Krishan (1975) as modified by Vindelov (1977), as discussed in KRISHAN, “Rapid Flow Cytometric Analysis of Mammalian Cell Cycle by Propidium Iodide Staining”, J. Cell Biol. 66:188-195 (1975); and VINDELOV, “Flow Cytometric Analysis of Nuclear DNA in Cells from Solid Tumors and Cell Suspensions”, Virchows Arch (B), 24:227-231 (1977), the disclosures of which are herein incorporated by reference in their entireties. […]

[4] = tested on: capillary endothelial cells; conditions: BANERJEE et al. (1993); cited from earlier work
[5] = cycloheximide replacing tunicamycin (data not shown)

## Cc1ccc(OCC(O)C(C)NC(C)C)c2c1CCC2 (stereo not drawn) [ICI-118,551]
[1]
  protein N-glycosylation: reduced protein N-glycosylation substantially

## CC(C)NCC(O)COc1ccc(CC(N)=O)cc1 (stereo not drawn) [atenolol]
[1]
  protein N-glycosylation: reduced protein N-glycosylation substantially

## C[C@@H]1C[C@@H]([C@H](O)CC2CC(=O)NC(=O)C2)C(=O)[C@@H](C)C1 [cycloheximide]
[2]; [5]
  induction of apoptosis: did not induce apoptosis
[3]; [5]
  cell proliferation: inhibited the cell proliferation in a time- and dose-dependent manner

## Amphomycin
[4]
  endothelial cell proliferation: inhibits endothelial cell proliferation in a dose-dependent manner

## bFGF/FGF-2: basic fibroblast growth factor
[2]; bFGF/FGF-2 10 ng/ml-100 ng/ml (68 hours in 2% serum control)
  time to complete the cell cycle: 56 h
[2]; bFGF/FGF-2 10 ng/ml-100 ng/ml versus 2% serum
  shortening of the G1 phase: 12 h
[3]; bFGF/FGF-2 10 ng/ml-100 ng/ml in 2% serum
  endothelial cell proliferation: stimulated the endothelial cell proliferation over the controls
[3]; bFGF/FGF-2 at stimulatory concentrations
  reduction of the lag phase: ~24 h

Reference: patent US7361643B2, “Methods for inhibiting angiogenesis” (University of Puerto Rico, priority 2000, dated 2008)
